Source: patent publication US20030095982A1, “Fraction of Cordyceps sinensis and method of isolation thereof” (priority 2001, published 2003)

Assays:
[1] = system: platelet aggregation induced by PAF; assay: PAF induced rabbit platelet aggregation in vitro; type: cell-based; conditions: 0.625 mM; washed rabbit platelets; PAF 2 nM; preincubated 2 min
From the text: In terms of inhibition, PAF induced rabbit platelete aggregation is used as an index of PAF function inhibition. It was used as the first step in vitro screening method for identifying potential substances which are capable of inhibiting PAF function and may improve bronchial hyperresponsiveness in vivo.
Washed platelets were obtained from rabbits. In brief, rabbit blood was collected from the marginal ear vein into tubes containing one-sixth volume of acid-citrate-dextrose as anticoagulant. The blood was centrifuged at 200×g for 15 min at room temperature. The platelet-rich plasma was mixed with 1/40 volume of EDTA (final concentration 5 mM) and re-centrifuged at 1000×g for 12 min. The supernatant was discarded and the platelet pellet was suspended in modified Ca^2+-free Tyrode's buffer (137 mM NaCl, 2.8 mM KCl, 2 mM MgCl2, 0.33 mM NaH2PO4, 5 mM glucose, 10 mM HEPES) with 0.35% bovine serum albumin, heparin (50 unit/ml) and apyrase (1 unit/ml). Following incubation at 37° C. for 20 min, the washed platelet pellet was resuspended in Tyrode's buffer containing 1 mM Ca^2+. The platelet number were counted by using a hemocytometer and adjusted to 3.5×10^8 platelets/ml. […] Aggregation was measured by a turbidimetric method. […] The inhibitory activities of F-4 and F-8 on platelet aggregation induced by PAF were calculated according the equation: [formula]

[2] = system: ovalbumin (OA) induced bronchial hyperresponsiveness; assay: Bronchoalveolar lavage cell counts, OA model in BNR; type: in vivo, brown Norway rats (BNR)
Description: After completion of the pulmonary function tests, BAL was performed using 10 mL normal saline twice (total 20 mL) for BNR or guinea pig. The BAL fluid was collected into plastic flasks containig 1,500 units of heparin and then strained through 1 layer of surgical gauze and centrifuged at 500 g for 5 min. The cell pellet was washed 3 times with sterile saline solution and resuspended in RPMI-1640. A small portion was taken for evaluation of cell number and viability, as assessed by trypan blue exclusion.
Differential counts were obtained using a cytocentrifuge preparation (Cytospin; Shandon Southern Instruments, Sewickley, Pa.) stained with Liu's stain (modified May-Giemsa stain).

ICR mice = assay: Acute toxicity test in ICR mice; type: in vivo; conditions: normal diet with 2% ratio, killed after 7 days
From the text: The methodology used to carry out acute toxicity testing for this invention was as follows: ICR mice that had been fed on a normal diet with the above active compound included to constitute a 2% ratio were killed after 7 days in order to ascertain whether there was any evidence of toxicity.
(§1) B: Compound F8: This refers to F8 (for spectroscopic and structural data, see FIG. 2a, 2b, and 3). The molecular formula of compound F8 is C28H46O3. To confirm the potential applicability of the above fractions and to check for obvious toxicity or mutagenicity, Ames test and acute toxicity test were conducted on white mice (ICR-mice) using the F4 fraction or compound F8.

Ames test = type: cell-based
Description: as §1

[3] = BAL fluid, 4 mg/Kg intraperitoneally 30 minutes before OA inhalation provocation

CC(C)[C@@H](C)C=C[C@@H](C)[C@H]1CC[C@H]2C3=C[C@@H](O)[C@@]4(O)C[C@@H](O)CC[C@]4(C)[C@H]3CC[C@]12C [F8, (24R)-ergosta-7,22-diene-3β, 5α, 6β,-triol]
Inhibitory Activity (%) [1]: 97±2.6%
Eosinophil Cell count [2, 3]: 4.26 ± 0.5 (×10^4)/mL
Eosinophil Percentage of total cell count (%) [2, 3]: 28.8 ± 4.5 %
Lymphocyte Cell count [2, 3]: 3.37 ± 0.51 (×10^4)/mL
Lymphocyte Percentage of total cell count (%) [2, 3]: 22.8 ± 4.5 %
Macrophage Cell count [2, 3]: 6.85 ± 0.64 (×10^4)/mL
Macrophage Percentage of total cell count (%) [2, 3]: 46.3 ± 5.5 %
Neutrophil Cell count [2, 3]: 0.31 ± 0.4 (×10^4)/mL
Neutrophil Percentage of total cell count (%) [2, 3]: 2.1 ± 0.5%
Total cell count [2, 3]: 14.8 ± 3.2 (×10^4)/mL
BAL total cell counts, eosinophils and lymphocytes versus group II ([2]; treatment study (administered after OA inhalation provocation)): Group II had higher total cell counts than the other 2 groups
acute toxicity (ICR mice): no obvious evidence of toxicity or mutagenic properties
mutagenicity (Ames test) (Ames test): no obvious evidence of toxicity or mutagenic properties
